The values that follow come from ChEMBL document CHEMBL4373660, “The synthesis and biological evaluation of novel gardenamide A derivatives as multifunctional neuroprotective agents” (Medchemcomm, 2019).

Each structure is given as a SMILES string.

The test system of data set [1] is Cortical neurone. The data set can be described thus: Neuroprotective activity against OGD-induced neurotoxicity in Sprague-Dawley rat cortical neuron assessed as cell survival rate at 0.1 uM pretreated for 24 hrs followed by incubation in oxygen and glucose deprivation medium for 2 hrs followed by exposure to reoxygenation by re-incubating in normoxia condition for 24 hrs by MTT assay (reference value: 58.5 to 61.2 %). The format is functional. A general note: Tetrazolium assays rely on reduction of a dye to a coloured formazan, in cell work by metabolically active cells.

Data set [2] relates to Cortical neurone. Briefly: Neuroprotective activity against OGD-induced neurotoxicity in Sprague-Dawley rat cortical neuron assessed as cell survival rate at 10 uM pretreated for 24 hrs followed by incubation in oxygen and glucose deprivation medium for 2 hrs followed by exposure to reoxygenation by re-incubating in normoxia condition for 24 hrs by MTT assay (reference value: 58.5 to 61.2 %). Type of data set: functional.

In data set [3] the test system is Cortical neurone. Briefly: Neuroprotective activity against OGD-induced neurotoxicity in Sprague-Dawley rat cortical neuron assessed as cell survival rate at 1 uM pretreated for 24 hrs followed by incubation in oxygen and glucose deprivation medium for 2 hrs followed by exposure to reoxygenation by re-incubating in normoxia condition for 24 hrs by MTT assay (reference value: 58.5 to 61.2 %). The format is functional.

Data set [4] is described as follows: Cytotoxicity against Sprague-Dawley rat cortical neuron assessed as cell survival at 33.3 uM incubated for 48 hrs by CellTiter Glo-based luminescence assay relative to control. Set-up: species or system Cortical neurone. Particulars: rat cortical neurons, read-out: Activity.
Data set [5] can be described thus: Neuroprotective activity against H2O2-induced neurotoxicity in Sprague-Dawley rat hippocampal neuron assessed as cell survival rate at 0.1 uM incubated for 24 hrs in presence of 150 uM H2O2 by MTT assay (reference value: 41.6 to 43.2 %). Type of data set: functional, Hippocampal neurone.
Data set [6] in a line: Neuroprotective activity against H2O2-induced neurotoxicity in Sprague-Dawley rat hippocampal neuron assessed as cell survival rate at 1 uM incubated for 24 hrs in presence of 150 uM H2O2 by MTT assay (reference value: 41.6 to 43.2 %). Type of data set: functional, Hippocampal neurone.
Data set [7] deals with Hippocampal neurone. The data set can be described thus: Neuroprotective activity against H2O2-induced neurotoxicity in Sprague-Dawley rat hippocampal neuron assessed as increase in cell survival rate incubated for 24 hrs in presence of 150 uM H2O2 by MTT assay. Type of data set: functional, cell-based.
Data set [8] in a line: Cytotoxicity against Sprague-Dawley rat cortical neuron assessed as cell survival at 100 uM incubated for 48 hrs by CellTiter Glo-based luminescence assay relative to control. Set-up: species or system Cortical neurone. Particulars: rat cortical neurons, read-out: Activity.
Data set [9] in a line: Cytotoxicity against Sprague-Dawley rat cortical neuron assessed as cell survival at 3.7 uM incubated for 48 hrs by CellTiter Glo-based luminescence assay relative to control. Particulars: rat cortical neurons, read-out: Activity. The arrangement: species or system Cortical neurone. For orientation: ATP-based viability assays read luminescence as a measure of living cells.

A short description of data set [10]: Neuroprotective activity against H2O2-induced neurotoxicity in Sprague-Dawley rat hippocampal neuron assessed as cell survival rate at 10 uM incubated for 24 hrs in presence of 150 uM H2O2 by MTT assay (reference value: 41.6 to 43.2 %). The format is functional, Hippocampal neurone.
Data set [11] deals with Hippocampal neurone. The data set can be described thus: Neuroprotective activity against amyloid beta (1 to 42)-induced neurotoxicity in Sprague-Dawley rat hippocampal neuron assessed as increase in cell survival rate incubated for 48 hrs in presence of amyloid beta (1 to 42) by CellTiter Glo-based luminescence assay. The format is functional.
Data set [12] is described as follows: Cytotoxicity against Sprague-Dawley rat cortical neuron assessed as cell survival at 11.1 uM incubated for 48 hrs by CellTiter Glo-based luminescence assay relative to control. Particulars: rat cortical neurons, read-out: Activity. Set-up: species or system Cortical neurone.

As to `COC(=O)C1=CN(C)C(=O)[C@@H]2C(CN3CCN(Cc4ccccc4)CC3)=CC[C@H]12.Cl.Cl`, the Activity with Cortical neurone [1] is given as 58.6%; in the data set with Cortical neurone [2], 72.3%; with Cortical neurone [3], 63.7%.
Take `COC(=O)C1=CN(C(C)C)C(=O)[C@@H]2C(CN3CCN(Cc4ccccc4)CC3)=CC[C@H]12.Cl.Cl`: in data set [4], the viability at 48 h, 33.3 µM was found to be 91.7%. In addition, the Activity with Cortical neurone [1] is 64.4%; with Cortical neurone [2] it was 84.5%; in data set [5], 60.3%; in data set [6] it was 71%; with Hippocampal neurone [7], “Dose-dependent effect”; in [10], 76.2%. Moreover, the Activity entry with Hippocampal neurone [11] was “Dose-dependent effect”; with Cortical neurone [3] it was 71.8%. The viability at 48 h, 100 µM in [8] came out at 82.5%. In [9], the viability at 48 h, 3.7 µM worked out at 90.7%. Besides, in data set [12], the viability at 48 h, 11.1 µM is 96.3%.
For the compound `COC(=O)C1=CN(C(C)C)C(=O)[C@@H]2C(CN3CCN(Cc4cccc(C)c4)CC3)=CC[C@H]12.Cl.Cl`, the Activity with Cortical neurone [1] amounted to 59%; in the data set on Cortical neurone [2] it was 84.8%; with Cortical neurone [3] it was 71.3%.
Take `COC(=O)C1=CN(C(C)C)C(=O)[C@@H]2C(CN3CCN(Cc4ccc(C(F)(F)F)cc4)CC3)=CC[C@H]12.Cl.Cl`: the Activity stood at 59.1% in the data set on Cortical neurone [1], 85.7% in the data set with Cortical neurone [2] and 71.6% in the data set on Cortical neurone [3].
`COC(=O)C1=CN(C)C(=O)[C@@H]2C(CN3CCN(Cc4cccc(C)c4)CC3)=CC[C@H]12.Cl.Cl`: the Activity with Cortical neurone [1] stood at 60.8%; in the data set on Cortical neurone [2], 71.9%; in the data set with Cortical neurone [3], 66.7%.
As for `COc1cc2c(cc1OC)C(=O)C(CC1CCN(Cc3ccccc3)CC1)C2` (configuration not stated) [DONEPEZIL], the Activity in the data set with Cortical neurone [1] is given as 65.5%; with Cortical neurone [2] it was 85.9%; in the data set with Cortical neurone [3], 72.3%.
Consider `COC(=O)C1=CN(C)C(=O)[C@@H]2C(CN3CCN(Cc4ccc(C(F)(F)F)cc4)CC3)=CC[C@H]12.Cl.Cl`, for which the Activity turned out to be 63% in the data set with Cortical neurone [1], 80.9% with Cortical neurone [2] and 72.2% with Cortical neurone [3].
On to `COC(=O)C1=CN(C(C)C)C(=O)[C@@H]2C(CN3CCN(Cc4ccc(Cl)cc4)CC3)=CC[C@H]12.Cl.Cl`, for which the values for the Activity in the data set with Cortical neurone [1], with Cortical neurone [2] and in the data set with Cortical neurone [3] were 58.7%, 71.9% and 64.3%, respectively.
As to `COC(=O)C1=CN(C)C(=O)[C@@H]2C(CN3CCN(Cc4cccc(C(F)(F)F)c4)CC3)=CC[C@H]12.Cl.Cl`, the Activity with Cortical neurone [1] is 63.3%; in the data set with Cortical neurone [2] it was 80.3%; with Cortical neurone [3], 72.5%.
With `COC(=O)C1=CNC(=O)[C@@H]2C(CO)=CC[C@H]12`, the Activity in the data set with Cortical neurone [1] is on record as 59%; with Cortical neurone [2] it was 79.3%; in data set [5], 59%; in data set [6], 65.8%; in data set [10], 70.9%; in the data set with Cortical neurone [3], 69.4%.
As to `COC(=O)C1=CN(C)C(=O)[C@@H]2C(CN3CCN(Cc4ccc(C)cc4)CC3)=CC[C@H]12.Cl.Cl`, the Activity worked out at 59% in the data set with Cortical neurone [1], 72.6% with Cortical neurone [2] and 66.9% in the data set with Cortical neurone [3].
For `COC(=O)C1=CN(C(C)C)C(=O)[C@@H]2C(CN3CCN(Cc4ccc([N+](=O)[O-])cc4)CC3)=CC[C@H]12.Cl.Cl`, in data set [4], the viability at 48 h, 33.3 µM is 88.7%. In addition, the Activity in the data set with Cortical neurone [1] was 67.1%; in the data set on Cortical neurone [2], 87.6%; in [5], 57.6%; in data set [6], 73.8%; with Hippocampal neurone [7] it was “Dose-dependent effect”; in data set [10] it was 82.1%. Further, the Activity result is “Dose-dependent effect” in the data set on Hippocampal neurone [11] and 74.3% with Cortical neurone [3]. Also, the viability at 48 h, 100 µM in data set [8] is 78.5%. In [9], the viability at 48 h, 3.7 µM is 97.2%. Besides, in data set [12], the viability at 48 h, 11.1 µM came out at 99.7%.
Turning to `CC(=O)N[C@@H](CS)C(=O)O` [ACETYLCYSTEINE], the Activity stood at 62.6% in data set [5], 69.5% in [6] and 79.1% in data set [10].
As to `COC(=O)C1=CN(C)C(=O)[C@@H]2C(CN3CCN(Cc4ccc(F)cc4)CC3)=CC[C@H]12.Cl.Cl`, in [4], the viability at 48 h, 33.3 µM turned out to be 85.1%. Moreover, the Activity was 63.8% in the data set with Cortical neurone [1]; 85.7% in the data set on Cortical neurone [2]; 62.5% in [5]; 70.3% in data set [6]; “Dose-dependent effect” with Hippocampal neurone [7]; 78.5% in [10]. The Activity result in the data set with Hippocampal neurone [11] was “Dose-dependent effect”; in the data set with Cortical neurone [3], 71.3%. The viability at 48 h, 100 µM in data set [8] worked out at 78.5%. Also, the viability at 48 h, 3.7 µM in data set [9] came to 98.4%. Moreover, in data set [12], the viability at 48 h, 11.1 µM was found to be 96.2%.
Take `COC(=O)C1=CN(C)C(=O)[C@@H]2C(CN3CCN(Cc4ccc([N+](=O)[O-])cc4)CC3)=CC[C@H]12.Cl.Cl`: the Activity in the data set on Cortical neurone [1] stood at 60%; in the data set on Cortical neurone [2], 74.3%; in the data set with Cortical neurone [3], 66.7%.
Consider `COC(=O)C1=CN(C(C)C)C(=O)[C@@H]2C(CN3CCN(Cc4cccc(C(F)(F)F)c4)CC3)=CC[C@H]12.Cl.Cl`, for which the results for the Activity in the data set on Cortical neurone [1], in the data set with Cortical neurone [2] and in the data set with Cortical neurone [3] were 58.7%, 85.5% and 71.6%, respectively.
`COC(=O)C1=CN(C(C)C)C(=O)[C@@H]2C(CN3CCN(Cc4ccc(F)cc4)CC3)=CC[C@H]12.Cl.Cl`: the viability at 48 h, 33.3 µM in [4] amounted to 88.4%. Further, the Activity in the data set with Cortical neurone [1] was 65.4%; with Cortical neurone [2] it was 86.5%; in data set [5] it was 60.4%; in data set [6] it was 67.3%; with Hippocampal neurone [7], “Dose-dependent effect”; in data set [10], 72.4%. For the same compound, the Activity result with Hippocampal neurone [11] was “Dose-dependent effect”; in the data set with Cortical neurone [3], 74.4%. Moreover, the viability at 48 h, 100 µM in data set [8] is 80.9%. In addition, the viability at 48 h, 3.7 µM in [9] was 94.2%. The viability at 48 h, 11.1 µM in data set [12] was found to be 98.4%.
As for `COC(=O)C1=CN(C)C(=O)[C@@H]2C(CN3CCN(Cc4cccc(OC)c4)CC3)=CC[C@H]12.Cl.Cl`, the Activity with Cortical neurone [1] is listed as 59.5%; with Cortical neurone [2], 72.5%; in the data set with Cortical neurone [3], 63.8%.
`COC(=O)C1=CN(C(C)C)C(=O)[C@@H]2C(CN3CCN(Cc4ccc(C)cc4)CC3)=CC[C@H]12.Cl.Cl`: the Activity amounted to 59% with Cortical neurone [1], 85.7% with Cortical neurone [2] and 73.1% in the data set on Cortical neurone [3].
Regarding `COC(=O)C1=CN(C)C(=O)[C@@H]2C(CN3CCN(Cc4ccc(Cl)cc4)CC3)=CC[C@H]12.Cl.Cl`, the Activity with Cortical neurone [1] is given as 62.7%; in the data set on Cortical neurone [2], 80.1%; in the data set with Cortical neurone [3] it was 71%.
Turning to `COC(=O)C1=CN(C(C)C)C(=O)[C@@H]2C(CN3CCN(Cc4cccc(OC)c4)CC3)=CC[C@H]12.Cl.Cl`, the Activity is 60.6% in the data set with Cortical neurone [1], 64% in the data set with Cortical neurone [2] and 62.1% with Cortical neurone [3].
